Reference: patent US20250034201A1, “PRODRUGS OF GANAXOLONE” (priority 2022, published 2025)
In brackets after ≈: the same amount, converted by molar mass. Where two headings read alike, the source gives them in different places.

Experiments:
[1] = Measured solubility in buffer, LC-MS/MS; type: physicochemical; settings: aqueous buffer, thermodynamic from solid
Description: […] The mixture was vortexed and a magnetic stirring bar was subsequently added to the vial. The vial was placed on a magnetic stirrer with constant stirring for 16-24 hours at room temperature. The pH of the top layer solution was measured. Subsequently, 200 μL of the top layer solution was placed in a 1.5 mL microcentrifuge tube and centrifuged at 18,000 g for 10 min at room temperature. A 10 μL aliquot of supernatant was added to 990 μL of methanol:water (1/:1, v/v) and vortexed. Then, one volume of acetonitrile containing internal standard was added to one volume of the above 100-fold diluted solution and the resulting solution was vortexed and placed in 96-well plate for LC-MS/MS analysis. […] LC-MS-MS analysis was performed utilizing multiple reaction monitoring for detection of characteristic ions for each test compound, additional related analytes and internal standard.

[2] = Stability in simulated intestinal fluid (SIF); type: in vitro ADME
Description: (§1) The stability of exemplary compounds in simulated gastric fluid (SGF) and simulated intestinal fluid (SIF) was tested according to the following protocol.

[3] = Rat liver microsomal stability; type: in vitro ADME; settings: for half-life / microsomal CLint: rat liver microsomes 0.5 mg/mL, with NADPH; for half-life / microsomal CLint / Rat Liver Microsomal Stability no NADPH, % remain 1 h: compound 0.5 μM; for half-life: 37° C., read-out: Rat Liver Microsomal Stability t1/2; for microsomal CLint: read-out: Rat Liver Microsomal Stability CLint (uL/min/mg liver); for Rat Liver Microsomal Stability no NADPH, % remain 1 h / Comments: production of GNX (ganaxolone) in rat liver microsomes: rat liver microsomes
Description: (§2) For several compounds only human liver microsomal stability was tested. […] The microsomal assays were carried out with and without the addition of NADPH at a final concentration of 1 mM. For negative control samples, NADPH reagent was not added. […] Note that compounds undergo only Phase I metabolism in liver microsomes.
(§3) CLint=the intrinsic hepatic clearance (uL/min/mg), where CLint is equal to 0.693/(t1/2×Cmp)

in vitro [4] = type: in vitro ADME, human
Description: as §2

in vitro [5] = settings: for Observations: stability / GNX production in human plasma / half-life / Observations: stability / GNX production in rat plasma: plasma
Description: The plasma stability of exemplary compounds was tested using rat, mice, dog, and human plasma, according to the following protocol. For each test compound, samples at a final concentration of 2 μg/mL were prepared in blank plasma of selected species. All samples were incubated at 37° C. on a 150-RPM orbital shaker, and an aliquot was removed at pre-determined time points (0, 15, 30, 60, and 120 minutes). Samples were precipitated with three volumes of acetonitrile containing propranolol as internal standard, and centrifuged for 10 min at 2000 g before LC/MS/MS analysis of the supernatant solutions.

[6] = Stability in simulated gastric fluid (SGF); type: in vitro ADME
Description: as §1

[7] = Dog liver microsomal stability; type: in vitro ADME
Description: as §2, §3
Certain compounds were also tested in mice and dog liver microsome assays according to the protocol outlined above. […].

Dog plasma stability = type: in vitro ADME
[8] = pH 7.4, 50 mM phosphate buffer, 16-24 hours, room temperature, read-out: Solubility pH 7.4
[9] = buffer, pH 2.0, room temperature, read-out: Solubility pH 2.0
[10] = SIF with pancreatin pH 6.8, 37° C., 60 min
[11] = simulated gi fluid, SIF with pancreatin pH 6.8, 37° C., 2 μg/mL, read-out: SIF t1/2
[12] = human liver microsomes 0.5 mg/mL, with NADPH, compound 0.5 μM, 37° C., read-out: Human Liver Microsomal Stability t1/2
[13] = human liver microsomes 0.5 mg/mL, with NADPH, compound 0.5 μM, read-out: Human Liver Microsomal Stability CLint (uL/min/mg liver) (converted)
[14] = human liver microsomes, no NADPH, compound 0.5 μM
[15] = SGF with pepsin pH 1.2, 37° C., 60 min
[16] = simulated gi fluid, SGF with pepsin pH 1.2, 37° C., 2 μg/mL, read-out: SGF t1/2
[17] = dog liver microsomes 0.5 mg/mL, compound 0.5 μM, read-out: Dog Liver Microsomal Stability CLint (uL/min/mg liver)
[18] = dog liver microsomes 0.5 mg/mL, compound 0.5 μM, read-out: Dog Liver Microsomal Stability t1/2
[19] = dog plasma, 2 μg/mL, 37° C., read-out: Dog plasma Half life (t1/2)

Compound	solubility [1, 8]	solubility [1, 9]	SIF (% remain, 60 min) [2, 10]	half-life [2, 11]	half-life [3]	microsomal CLint [3]	Rat Liver Microsomal Stability no NADPH, % remain 1 h [3]	half-life (in vitro [4]; [12])	microsomal CLint (in vitro [4]; [13])	Human Liver Microsomal Stability no NADPH, % remain 1 h (in vitro [4]; [14])	Human plasma t90 (in vitro [5]; human plasma, 2 μg/mL, 37° C.)	Observations: stability / GNX production in human plasma (in vitro [5]; human)	half-life (in vitro [5]; human)	Rat plasma t90 (in vitro [5]; 2 μg/mL, 37° C.)	Observations: stability / GNX production in rat plasma (in vitro [5]; rat)	half-life (in vitro [5]; rat)	SGF (% remain, 60 min) [6, 15]	microsomal CLint [7, 17]	half-life [7, 18]	Dog Liver Microsomal Stability no NADPH, % remain 1 h ([7]; dog liver microsomes, no NADPH)	also measured
CC(=O)[C@H]1CC[C@H]2[C@@H]3CC[C@H]4C[C@](C)(OC(=O)CO)CC[C@]4(C)[C@H]3CC[C@]12C [Compound 201]	33 µg/mL (≈ 84.5 µM)	36 µg/mL (≈ 92.2 µM)	98.0%	1580 min	32.4 min	42.7 µL/min/mg	99.5%	17.4 min	79.5 µL/min/mg	70%	313 min	compound very slowly	2080 min	82 min	compound very slowly	543 min					Comments: production of GNX (ganaxolone) in human liver microsomes (in vitro [4]; human liver microsomes): In human, GNX produced
CC(=O)[C@H]1CC[C@H]2[C@@H]3CC[C@H]4C[C@](C)(OC(=O)CNC(C)(C)C(=O)O)CC[C@]4(C)[C@H]3CC[C@]12C [Compound 120]	35 µg/mL (≈ 73.6 µM)	39 µg/mL (≈ 82 µM)	74%	199 min	36 min	38 µL/min/mg	72%	16 min	86 µL/min/mg	8%	218 min	No GNX produced in rat,	1490 min	78 min	No GNX produced in rat,	520 min	83%	17 µL/min/mg	81 min	83%	half-life [6, 16]: 250 min; Comments: production of GNX (ganaxolone) in rat liver microsomes [3]: In rat no GNX produced;; Observations: stability / GNX production in dog plasma (Dog plasma stability; dog plasma): No GNX produced in rat,; Dog plasma t90 (Dog plasma stability; dog plasma, 2 μg/mL, 37° C.): 88 min; half-life (Dog plasma stability; [19]): 583 min
CC(=O)[C@H]1CC[C@H]2[C@@H]3CC[C@H]4C[C@](C)(OC(=O)COC(=O)CN5CCOCC5)CC[C@]4(C)[C@H]3CC[C@]12C [Compound 200]	29 µg/mL (≈ 56 µM)	11800 µg/mL (≈ 22800 µM)	31%		12.1 min	115 µL/min/mg	7.5%	6 min	229 µL/min/mg	1%	2.19 min		14.6 min	1.4 min	In rat, compound converted	9.5 min	99.0%				
CC(=O)[C@H]1CC[C@H]2[C@@H]3CC[C@H]4C[C@](C)(OC(=O)COC(=O)C(C)(C)OC(=O)CN(CCO)CCO)CC[C@]4(C)[C@H]3CC[C@]12C [Compound 228]			1.7%	32 min	16.4 min	84.4 µL/min/mg	15%	6.2 min	225 µL/min/mg	6%	1.4 min	No GNX produced	9 min	1.8 min	GNX produced in rat	12 min	89%	129 µL/min/mg	10.7 min	12.9%	half-life [6, 16]: 511 min; Comments: production of GNX (ganaxolone) in rat liver microsomes [3]: In rat no GNX produced;; Comments: production of GNX (ganaxolone) in human liver microsomes (in vitro [4]; human liver microsomes): In human GNX produced.; Observations: stability / GNX production in dog plasma (Dog plasma stability; dog plasma): No GNX produced; Dog plasma t90 (Dog plasma stability; dog plasma, 2 μg/mL, 37° C.): 3 min; half-life (Dog plasma stability; [19]): 20 min
CC(=O)OCCN(CCOC(C)=O)CC(=O)OC(C)(C)C(=O)OCC(=O)O[C@]1(C)CC[C@@]2(C)[C@@H](CC[C@@H]3[C@@H]2CC[C@]2(C)[C@@H](C(C)=O)CC[C@@H]32)C1 [Compound 229]	11 µg/mL (≈ 15.6 µM)	22 µg/mL (≈ 31.2 µM)						6.1 min	227 µL/min/mg	1%								224 µL/min/mg	6.2 min	1%	
CC(=O)OCCN(C)CC(=O)OC(C)(C)C(=O)OCC(=O)O[C@]1(C)CC[C@@]2(C)[C@@H](CC[C@@H]3[C@@H]2CC[C@]2(C)[C@@H](C(C)=O)CC[C@@H]32)C1 [Compound 242]												No GNX produced	33 min								SGF (% remain, 60 min) ([6]; simulated gi fluid, 1 h, pH 1.2): 99.1%; half-life ([6]; simulated gi fluid, pH 1.2): 4600 min; SIF (% remain, 60 min) ([2]; simulated gi fluid, 1 h, pH 6.8): 29%; half-life ([2]; simulated gi fluid, pH 6.8): 146 min; half-life (in vitro [4]; human, microsomes): 1.41 min; microsomal CLint (in vitro [4]; human, microsomes): 982 µL/min/mg; Human Liver Microsomal Stability no NADPH, % remain 1 h (in vitro [4]; human, microsomes): 0.26%; half-life ([7]; dog, microsomes): 2.07 min; microsomal CLint ([7]; dog, microsomes): 668 µL/min/mg; Dog Liver Microsomal Stability no NADPH, % remain 1 h ([7]; dog, microsomes): 0.89%; Human plasma t90 (in vitro [5]; human): 4.99 min; Dog plasma t90 (Dog plasma stability; dog): 578 min; Observations: stability / GNX production in dog plasma (Dog plasma stability; dog plasma): No GNX produced; half-life (Dog plasma stability; dog plasma): 3840 min
